Measurements as given in PubChem BioAssay (NCI).
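Abbreviation: GI50, concentration required for 50% inhibition of growth. TGI denotes the concentration required for complete inhibition of growth.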

Experiments:
Assay in all cases: DTP human tumour cell line panel, 384-well format
A498 renal = test system: A498 renal
ACHN renal = test system: ACHN renal
BT-549 breast = test system: BT-549 breast
CAKI-1 renal = test system: CAKI-1 renal
CCRF-CEM leukemia = test system: CCRF-CEM leukemia
COLO 205 colon = test system: COLO 205 colon
DU-145 prostate = test system: DU-145 prostate
EKVX NSCLC = test system: EKVX NSCLC
HCC-2998 colon = test system: HCC-2998 colon
HCT-15 colon = test system: HCT-15 colon
HL-60(TB) leukemia = test system: HL-60(TB) leukemia
HOP-62 NSCLC = test system: HOP-62 NSCLC
HOP-92 NSCLC = test system: HOP-92 NSCLC
HS 578T breast = test system: HS 578T breast
HT29 colon = test system: HT29 colon
IGROV1 ovarian = test system: IGROV1 ovarian
KM12 colon = test system: KM12 colon
M14 melanoma = test system: M14 melanoma
MALME-3M melanoma = test system: MALME-3M melanoma
MCF7 breast = test system: MCF7 breast
MDA-MB-231 breast = test system: MDA-MB-231 breast
MDA-MB-435 melanoma = test system: MDA-MB-435 melanoma
MDA-MB-468 breast = test system: MDA-MB-468 breast
MOLT-4 leukemia = test system: MOLT-4 leukemia
NCI-H226 lung = test system: NCI-H226 lung
NCI-H23 lung = test system: NCI-H23 lung
NCI-H322M lung = test system: NCI-H322M lung
NCI-H460 NSCLC = test system: NCI-H460 NSCLC
NCI-H522 lung = test system: NCI-H522 lung
NCI/ADR-RES ovarian = test system: NCI/ADR-RES ovarian
OVCAR-3 ovarian = test system: OVCAR-3 ovarian
OVCAR-4 ovarian = test system: OVCAR-4 ovarian
OVCAR-5 ovarian = test system: OVCAR-5 ovarian
OVCAR-8 ovarian = test system: OVCAR-8 ovarian
PC-3 prostate = test system: PC-3 prostate
RPMI-8226 leukemia = test system: RPMI-8226 leukemia
RXF 393 renal = test system: RXF 393 renal
SF-268 CNS = test system: SF-268 CNS
SF-539 CNS = test system: SF-539 CNS
SK-MEL-2 melanoma = test system: SK-MEL-2 melanoma
SK-MEL-28 melanoma = test system: SK-MEL-28 melanoma
SK-MEL-5 melanoma = test system: SK-MEL-5 melanoma
SK-OV-3 ovarian = test system: SK-OV-3 ovarian
SN12C renal = test system: SN12C renal
SNB-19 CNS = test system: SNB-19 CNS
SNB-75 CNS = test system: SNB-75 CNS
SR leukemia = test system: SR leukemia
SW-620 colon = test system: SW-620 colon
T-47D breast = test system: T-47D breast
TK-10 renal = test system: TK-10 renal
U251 glioblastoma = test system: U251 glioblastoma
UACC-257 melanoma = test system: UACC-257 melanoma
UACC-62 melanoma = test system: UACC-62 melanoma

## COc1ccc(N(C)c2nc(C)nc3ccccc23)cc1
A498 renal
  GI50: < 0.01 µM
  TGI: 35.4 µM
ACHN renal
  GI50: < 0.01 µM
  TGI: 11.4 µM
BT-549 breast
  GI50: < 0.01 µM
  TGI: < 0.01 µM
CAKI-1 renal
  GI50: < 0.01 µM
  TGI: 0.288 µM
CCRF-CEM leukemia
  GI50: < 0.01 µM
  TGI: < 0.01 µM
COLO 205 colon
  GI50: < 0.01 µM
  TGI: < 0.01 µM
DU-145 prostate
  GI50: < 0.01 µM
  TGI: 0.0328 µM
EKVX NSCLC
  GI50: < 0.01 µM
  TGI: 25.1 µM
HCC-2998 colon
  GI50: < 0.01 µM
  TGI: < 0.01 µM
HCT-15 colon
  GI50: < 0.01 µM
  TGI: < 0.01 µM
HL-60(TB) leukemia
  GI50: < 0.01 µM
  TGI: < 0.01 µM
HOP-62 NSCLC
  GI50: < 0.01 µM
  TGI: 5.64 µM
HOP-92 NSCLC
  GI50: < 0.01 µM
  TGI: 0.0131 µM
HS 578T breast
  GI50: < 0.01 µM
  TGI: < 0.01 µM
HT29 colon
  GI50: < 0.01 µM
  TGI: 13 µM
IGROV1 ovarian
  GI50: < 0.01 µM
  TGI: > 100 µM
KM12 colon
  GI50: < 0.01 µM
  TGI: 38.4 µM
M14 melanoma
  GI50: < 0.01 µM
  TGI: < 0.01 µM
MALME-3M melanoma
  GI50: < 0.01 µM
  TGI: < 0.01 µM
MCF7 breast
  GI50: < 0.01 µM
  TGI: 0.184 µM
MDA-MB-231 breast
  GI50: < 0.01 µM
  TGI: 23.9 µM
MDA-MB-435 melanoma
  GI50: < 0.01 µM
  TGI: < 0.01 µM
MDA-MB-468 breast
  GI50: < 0.01 µM
  TGI: < 0.01 µM
MOLT-4 leukemia
  GI50: < 0.01 µM
  TGI: < 0.01 µM
NCI-H226 lung
  GI50: < 0.01 µM
  TGI: < 0.01 µM
NCI-H23 lung
  GI50: < 0.01 µM
  TGI: < 0.01 µM
NCI-H322M lung
  GI50: < 0.01 µM
  TGI: > 100 µM
NCI-H460 NSCLC
  GI50: < 0.01 µM
  TGI: < 0.01 µM
NCI-H522 lung
  GI50: < 0.01 µM
  TGI: < 0.01 µM
NCI/ADR-RES ovarian
  GI50: < 0.01 µM
  TGI: < 0.01 µM
OVCAR-3 ovarian
  GI50: < 0.01 µM
  TGI: < 0.01 µM
OVCAR-4 ovarian
  GI50: < 0.01 µM
  TGI: 2.08 µM
OVCAR-5 ovarian
  GI50: < 0.01 µM
  TGI: > 100 µM
OVCAR-8 ovarian
  GI50: < 0.01 µM
  TGI: < 0.01 µM
PC-3 prostate
  GI50: < 0.01 µM
  TGI: < 0.01 µM
RPMI-8226 leukemia
  GI50: < 0.01 µM
  TGI: < 0.01 µM
RXF 393 renal
  GI50: < 0.01 µM
  TGI: < 0.01 µM
SF-268 CNS
  GI50: < 0.01 µM
  TGI: < 0.01 µM
SF-539 CNS
  GI50: < 0.01 µM
  TGI: < 0.01 µM
SK-MEL-2 melanoma
  GI50: < 0.01 µM
  TGI: < 0.01 µM
SK-MEL-28 melanoma
  GI50: < 0.01 µM
  TGI: < 0.01 µM
SK-MEL-5 melanoma
  GI50: < 0.01 µM
  TGI: < 0.01 µM
SK-OV-3 ovarian
  GI50: < 0.01 µM
  TGI: < 0.01 µM
SN12C renal
  GI50: < 0.01 µM
  TGI: 46 µM
SNB-19 CNS
  GI50: < 0.01 µM
  TGI: < 0.01 µM
SNB-75 CNS
  GI50: < 0.01 µM
  TGI: < 0.01 µM
SR leukemia
  GI50: < 0.01 µM
  TGI: < 0.01 µM
SW-620 colon
  GI50: < 0.01 µM
  TGI: > 100 µM
T-47D breast
  GI50: < 0.01 µM
  TGI: 55.7 µM
TK-10 renal
  GI50: < 0.01 µM
  TGI: 90.3 µM
U251 glioblastoma
  GI50: < 0.01 µM
  TGI: < 0.01 µM
UACC-257 melanoma
  GI50: < 0.01 µM
  TGI: 75.5 µM
UACC-62 melanoma
  GI50: < 0.01 µM
  TGI: < 0.01 µM
